Results on 8 compounds are retold here after ChEMBL document CHEMBL1139537, “Examination of phosphoryl-mimicking functionalities within a macrocyclic Grb2 SH2 domain-binding platform” (J Med Chem, 2005).

In experiment [1] the target is T1, Growth factor receptor-bound protein 2 (Homo sapiens, UniProt P62993). As to the kind of experiment: Dissociation constant value against growth factor receptor bound protein 2.
Target sequence in this assay (P62993 whole entry): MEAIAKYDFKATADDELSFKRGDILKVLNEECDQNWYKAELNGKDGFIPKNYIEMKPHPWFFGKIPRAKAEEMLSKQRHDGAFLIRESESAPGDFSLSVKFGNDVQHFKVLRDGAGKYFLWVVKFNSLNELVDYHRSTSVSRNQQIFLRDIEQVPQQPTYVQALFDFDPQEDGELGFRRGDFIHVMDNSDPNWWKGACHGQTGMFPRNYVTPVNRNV
Experiment [2] concerns the target T1, Growth factor receptor-bound protein 2. As to the kind of experiment: Binding off-rate against growth factor receptor bound protein 2.
Target sequence in this assay (P62993 whole entry): as above
Experiment [3] has the same target. As to the kind of experiment: Inhibitory concentration against growth factor receptor bound protein 2.
Target sequence in this assay (P62993 whole entry): as above
For experiment [4] the target is unchanged. The experiment in a line: Binding on-rate against growth factor receptor bound protein 2.
Target sequence in this assay (P62993 whole entry, looked up): as the sequence (P62993 whole entry) above

Some results are limits rather than exact numbers.

As for `Cc1ccc2c(ccn2C[C@@H]2C/C=C/[C@H](c3ccc(CP(=O)(O)O)cc3)[C@H](CC(=O)O)C(=O)NC3(CCCCC3)C(=O)N[C@@H](CC(N)=O)C(=O)NC2)c1`, the Kd in experiment [1] was determined as 0.00147 µM. Also, the koff in experiment [2] came to 0.00801 s⁻¹. The same compound returned an IC50 in experiment [3] of 0.015 µM. In addition, the Ka in experiment [4] came out at 5.46e+06 M⁻¹ s⁻¹.

As to `Cc1ccc2c(ccn2C[C@@H]2C/C=C/[C@H](c3ccc([N+](=O)[O-])cc3)[C@H](CC(=O)O)C(=O)NC3(CCCCC3)C(=O)N[C@@H](CC(N)=O)C(=O)NC2)c1`, the Kd in experiment [1] was greater than 1 µM.

With `Cc1ccc2c(ccn2C[C@@H]2C/C=C/[C@H](c3ccc(NC(=O)C(=O)O)cc3)[C@H](CC(=O)O)C(=O)NC3(CCCCC3)C(=O)N[C@@H](CC(N)=O)C(=O)NC2)c1`, in experiment [1], the Kd was 0.067 µM. In experiment [2], this compound had a koff of 0.0508 s⁻¹. Half-maximal inhibition in experiment [3] (IC50) was put at 0.0088 µM.

In experiment [1], `Cc1ccc2c(ccn2C[C@@H]2C/C=C/[C@H](c3ccc(C(C(=O)O)C(=O)O)cc3)[C@H](CC(=O)O)C(=O)NC3(CCCCC3)C(=O)N[C@@H](CC(N)=O)C(=O)NC2)c1` showed a Kd of 0.00362 µM. Besides, the koff in experiment [2] is 0.0227 s⁻¹. Moreover, half-maximal inhibition in experiment [3] (IC50) was put at 0.0033 µM.

`Cc1ccc2c(ccn2C[C@@H]2C/C=C/[C@H](c3ccc(CP(=O)(O)Cc4ccccc4)cc3)[C@H](CC(=O)O)C(=O)NC3(CCCCC3)C(=O)N[C@@H](CC(N)=O)C(=O)NC2)c1` had a Kd in experiment [1] of 0.0353 µM. The compound also had a koff in experiment [2] of 0.00512 s⁻¹. In experiment [3], the IC50 amounted to 0.0084 µM.

In experiment [1], `Cc1ccc2c(ccn2C[C@@H]2C/C=C/[C@H](c3ccc(O)cc3)[C@H](CC(=O)O)C(=O)NC3(CCCCC3)C(=O)N[C@@H](CC(N)=O)C(=O)NC2)c1` yielded a Kd greater than 1 µM.

Take `Cc1ccc2c(ccn2C[C@@H]2C/C=C/[C@H](c3ccc(CP(C)(=O)O)cc3)[C@H](CC(=O)O)C(=O)NC3(CCCCC3)C(=O)N[C@@H](CC(N)=O)C(=O)NC2)c1`: the Kd in experiment [1] was determined as 0.0162 µM. This compound also displayed a koff in experiment [2] of 0.00988 s⁻¹. The compound also showed an IC50 in experiment [3] of 0.0063 µM.

Regarding `Cc1ccc2c(ccn2C[C@@H]2C/C=C/[C@H](c3ccc(CC(=O)O)cc3)[C@H](CC(=O)O)C(=O)NC3(CCCCC3)C(=O)N[C@@H](CC(N)=O)C(=O)NC2)c1`, the Kd in experiment [1] was 0.033 µM. Besides, the koff in experiment [2] stood at 0.0101 s⁻¹. For the same compound, the IC50 in experiment [3] amounted to 0.0225 µM.
